13 compounds from patent US6794402B2, “Bicyclic cyclohexylamines and their use as NMDA receptor antagonists” (Warner-Lambert Company, priority 2000, dated 2004) can be followed below.

In general, melting point refers to the temperature, or range, at which the solid turns liquid.

Where a name gives a salt, the structure may show the parent alone.

`CN(CCCc1ccccc1F)[C@H]1CC[C@H](c2ccc3[nH]c(=O)oc3c2)CC1` (as salt: HCl) [Example 46b, 6-(trans-4-{[3-(2-Fluorophenyl)propyl]methylamino}cyclohexyl)-3H-benzoxazol-2-one] returned a melting point of 242 to 246 °C. The result for `CN(CCCc1ccc(F)cc1F)[C@H]1CC[C@H](c2ccc3[nH]c(=O)oc3c2)CC1` (as salt: HCl) [Example 24b, 6-(trans-4-{[3-(2,4-Difluorophenyl)propyl]methylamino}cyclohexyl)-3H-benzoxazol-2-one] reads 269 to 272 °C; that for `CCN([C@H]1CC[C@H](c2ccc3[nH]c(=O)oc3c2)CC1)[C@@H](C)CCc1ccccc1` (as salt: HCl) [Example 28, 6-(trans-4-{Ethyl-[(S)-1-methyl-3-phenylpropyl]amino}cyclohexyl)-3H-benzoxazol-2-one], 221 to 246 °C; that for `Cc1c(F)cccc1CCCN(C)[C@H]1CC[C@H](c2ccc3[nH]c(=O)oc3c2)CC1` (as salt: HCl) [Example 48b, 6-(trans-4-{[3-(3-Fluoro-2-methylphenyl)propyl]methylamino}cyclohexyl)-3H-benzoxazol-2-one], 264 to 269 °C. To `COc1cc2[nH]c(=O)oc2cc1[C@H]1CC[C@H](N(C)CCCc2ccc(F)cc2)CC1` (as salt: salt) [Example 65, 6-(trans-4-{[3-(4-Fluorophenyl)propyl]methylamino}cyclohexyl)-5-methoxy-3H-benzoxazol-2-one] belongs 239 to 242 °C; to `CC(C)c1ccc(CCCN(C)[C@H]2CC[C@H](c3ccc4[nH]c(=O)oc4c3)CC2)cc1` (as salt: HCl) [Example 53, 6-(trans-4-{[3-(4-Isopropylphenyl)propyl]methylamino}cyclohexyl)-3H-benzoxazol-2-one], 179 to 181 °C. To `CCN(CCCc1ccc(C(F)(F)F)cc1)[C@H]1CC[C@H](c2ccc3[nH]c(=O)oc3c2)CC1` (as salt: HCl) [Example 26] belongs 248 to 252 °C; to `O=c1[nH]c2ccc([C@H]3CC[C@H](NCCCc4ccc(F)cc4)CC3)cc2o1` (as salt: HCl) [Example 4a, 6-{trans-4-[3-(4-Fluorophenyl)propylamino]cyclohexyl}-3H-benzoxazol-2-one], 293 to 307 °C; to `O=c1[nH]c2ccc([C@H]3CC[C@H](N(CCCc4ccc(F)cc4)Cc4ccoc4)CC3)cc2o1` (as salt: HCl) [Example 31, 6-(trans-4-{[3-(4-Fluorophenyl)propyl]furan-3-ylmethylamino}cyclohexyl)-3H-benzoxazol-2-one], 225 to 227 °C. Consider `O=c1[nH]c2ccc([C@H]3CC[C@H](N(CCCc4ccc(F)cc4)CC4CC4)CC3)cc2o1` (as salt: HCl) [Example 30, 6-(trans-4-{Cyclopropylmethyl-[3-(4-fluorophenyl)propyl]amino}cyclohexyl)-3H-benzoxazol-2-one], for which the melting point was 221 to 225 °C. The result for `CN(CCCc1ccc(C(F)(F)F)cc1)[C@H]1CC[C@H](c2ccc3[nH]c(=O)oc3c2)CC1` (as salt: HCl) [Example 23, 6-{trans-4-[Methyl-3-(4-Trifluoromethylphenyl)propylamino]cyclohexyl}-3H-benzoxazol-2-one] reads 227 to 234 °C. To `O=c1[nH]c2ccc([C@H]3CC[C@H](N(CCO)CCCc4ccc(F)cc4)CC3)cc2o1` (as salt: HCl) [Example 29, 6-{trans-4-[[3-(4-Fluorophenyl)propyl]-(2-hydroxyethyl)amino]cyclohexyl}-3H-benzoxazol-2-one] belongs 259 to 262 °C; to `NC(=O)CN(CCCc1ccc(F)cc1)[C@H]1CC[C@H](c2ccc3[nH]c(=O)oc3c2)CC1` (as salt: HCl) [Example 34, 2-{[3-(4-Fluorophenyl)propyl]-[4-(2-oxo-2,3-dihydro-benzoxazol-6-yl)-cyclohexyl]amino}acetamide], 266 to 270 °C.
